# In patent US7449473B2, “Substituted pyrrolo[3,2-d]pyrimidin-2,4-diones as A2b adenosine receptor antagonists” (CV Therapeutics, Inc., priority 2003, dated 2008):
# pKi: −log10 of the molar value.
# Biological target: T1, Human A2B adenosine receptor (Homo sapiens, UniProt P29275)
# T1 construct: expressed in transfected cells; host or cells: HEK-293 (HEK-A2B), membrane preparation
# T1 sequence (P29275 1-332): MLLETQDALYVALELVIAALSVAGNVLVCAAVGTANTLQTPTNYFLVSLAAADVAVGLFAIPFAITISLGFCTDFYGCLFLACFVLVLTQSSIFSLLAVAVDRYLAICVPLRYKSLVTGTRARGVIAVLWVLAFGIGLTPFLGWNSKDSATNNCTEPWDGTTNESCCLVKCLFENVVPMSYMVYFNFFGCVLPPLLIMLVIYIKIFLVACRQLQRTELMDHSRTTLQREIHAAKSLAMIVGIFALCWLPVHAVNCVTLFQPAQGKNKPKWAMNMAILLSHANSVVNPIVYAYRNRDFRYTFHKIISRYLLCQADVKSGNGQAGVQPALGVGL
# Test: Radioligand binding for A2B adenosine receptor (3H-ZM241385 competition, HEK-A2B membranes)
# Conditions: competition with 10 nM 3H-ZM241385, HEK-A2B cell membranes
# Description: Radioligand Binding for A2B Adenosine Receptor.
# Human A2B adenosine receptor cDNA was stably transfected into HEK-293 cells (referred to as HEK-A2B cells). Monolayer of HEK-A2B cells were washed with PBS once and harvested in a buffer containing 10 mM HEPES (pH 7.4), 10 mM EDTA and protease inhibitors. These cells were homogenized in polytron for 1 minute at setting 4 and centrifuged at 29000 g for 15 minutes at 4° C. The cell pellets were washed once with a buffer containing 10 mM HEPES (pH7.4), 1 mM EDTA and protease inhibitors, and were resuspended in the same buffer supplemented with 10% sucrose. Frozen aliquots were kept at −80° C. Competition assays were started by mixing 10 nM ^3H-ZM241385 (Tocris Cookson) with various concentrations of test compounds and 50 μg membrane proteins in TE buffer (50 mM Tris and 1 mM EDTA) supplemented with 1 Unit/mL adenosine deaminase. The assays were incubated for 90 minutes, stopped by filtration using Packard Harvester and washed four times with ice-cold TM buffer (10 mM Tris, 1 mM MgCl2, pH 7.4). Non specific binding was determined in the presence of 10 μM ZM241385. The affinities of compounds (i.e. Ki values) were calculated using GraphPad software.
row,SMILES,pKi
1,"CCCn1c(=O)c2c(cc(-c3ccncc3)n2O)n(CCC)c1=O [8-(pyridin-4-yl)-7-hydroxy-1,3-dipropyl-1H-pyrrolo[3,2-d]pyrimidine-2,6-dione]",7.92
2,"CCCn1c(=O)c2[nH]c(-c3cc[n+]([O-])cc3)cc2n(CCC)c1=O [8-(N-oxypyridin-4-yl)-1,3-dipropyl-1H-pyrrolo[3,2-d]pyrimidine-2,6-dione]",6.26
3,"CCCn1c(=O)c2c(cc(-c3ccccn3)n2O)n(CCC)c1=O [1,3-dipropyl-8-(pyridin-2-yl)-7-hydroxy-1H-pyrrolo[3,2-d]pyrimidine-2,6-dione]",6.89
4,"CCCn1c(=O)c2c(cc(-c3cnn(Cc4cccc(C(F)(F)F)c4)c3)n2O)n(CCC)c1=O [8-(1-(3-(trifluoromethyl)benzyl)-1H-pyrazol-4-yl)-7-hydroxy-1,3-dipropyl-1H-pyrrolo[3,2-d]pyrimidine-2,6-dione]",8.05

# Next, values leading:
row,pKi,SMILES
1,6.92,"CCCn1c(=O)c2c(cc(-c3cnn(Cc4ccccc4)c3)n2O)n(CCC)c1=O [8-(1-benzyl-1H-pyrazol-4-yl)-7-hydroxy-1,3-dipropyl-1H-pyrrolo[3,2-d]pyrimidine-2,6-dione]"
2,7.89,"CCCn1c(=O)c2[nH]c(-c3cnn(Cc4cccc(F)c4)c3)cc2n(CCC)c1=O [8-(1-(3-fluorobenzyl)-1H-pyrazol-4-yl)-1,3-dipropyl-1H-pyrrolo[3,2-d]pyrimidine-2,6-dione]"
3,7.59,"CCCn1c(=O)c2[nH]c(-c3cnn(Cc4ccccc4)c3)cc2n(CCC)c1=O [6-[1-benzylpyrazol-4-yl]-1,3-dipropyl-1,3-dihydropyrrolo[3,2-d]pyrimidine-2,4-dione]"
